Data: ChEMBL document CHEMBL1201862, “PubChem BioAssay data set” (2004)
Several values for one entry are separate records, joined by “and”; a condition that tells them apart may be missing. Equal entries are not always repeated.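 Values below derive from 48-hour exposures of cells grown in 96-well plates, with endpoints linearly interpolated between the two concentrations bracketing the appropriate inhibition level. The concentration for 50% growth inhibition is given as GI50.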 Activity calls are given as the source filed them. Cut-off read from the data, not from the text of the source: active = GI50 up to about 1.1 µM and inactive = higher.

Key:
Experiment in all cases: inhibition of tumour cell growth, NCI panel, 48 h
[1] = tested on: NCI-H226
[2] = tested on: HCT-116
[3] = tested on: M14
[4] = tested on: SK-OV-3
[5] = tested on: NCI-H522
[6] = tested on: SN12C
[7] = tested on: A549
[8] = tested on: LOX IMVI
[9] = tested on: HL-60
[10] = tested on: 786-0
[11] = tested on: CCRF-CEM
[12] = tested on: T47D
[13] = tested on: NCI-H23
[14] = tested on: SF-268
[15] = tested on: HOP-92
[16] = tested on: KM12
[17] = tested on: HOP-62
[18] = tested on: Malme-3M
[19] = tested on: A498

Compound	GI50 [1]	GI50 [2]	GI50 [3]	GI50 [4]	GI50 [5]	GI50 [6]	GI50 [7]	GI50 [8]	GI50 [9]	GI50 [10]	GI50 [11]	GI50 [12]	GI50 [13]	GI50 [14]	GI50 [15]	GI50 [16]	GI50 [17]	GI50 [18]	GI50 [19]
C=C(C)COc1cc(/N=C(/S)OC(C)C)ccc1Cl	17.9 µM (inactive)	15.2 µM (inactive)	17.2 µM (inactive)	19.3 µM (inactive)	14.9 µM (inactive)	16.1 µM (inactive)	12.7 µM (inactive)	16.3 µM (inactive)	15.6 µM (inactive)	16.6 µM (inactive)	13.5 µM (inactive)	13.3 µM (inactive)	16.1 µM (inactive)	19.5 µM (inactive)	13.6 µM (inactive)	20.2 µM (inactive)	–	–	–
Cc1nn(C(=O)c2ccc(Cl)cc2)c2c1C(c1ccc(Cl)cc1)SC(=N)N2 (centres undefined)	> 10 µM (inactive)	> 10 µM (inactive)	> 10 µM (inactive)	> 10 µM (inactive)	> 10 µM (inactive)	> 10 µM (inactive)	> 10 µM (inactive)	> 10 µM (inactive)	> 10 µM (inactive)	> 10 µM (inactive)	> 10 µM (inactive)	> 10 µM (inactive)	> 10 µM (inactive)	> 10 µM (inactive)	> 10 µM (inactive)	> 10 µM (inactive)	> 10 µM (inactive)	> 10 µM (inactive)	–
COC(=O)C1CCC(=O)N1C(c1ccc(OC)cc1)c1cc(OC)c(OC)c(OC)c1 (centres undefined)	0.324 µM (active)	0.324 µM (active)	0.322 µM (active)	0.968 µM (active)	0.047 µM (active)	0.531 µM (active)	0.449 µM (active)	0.356 µM (active)	0.245 µM (active)	0.507 µM (active)	0.311 µM (active)	> 100 µM (inactive)	0.553 µM (active)	0.625 µM (active)	> 100 µM (inactive)	0.146 µM (active)	0.378 µM (active)	–	0.705 µM (active)
COc1ccc2c(c1)/C(=C\c1c(-c3ccccc3)nc3n1CCS3)C(=O)N2	–	5.01 µM (inactive)	6.9 µM (inactive)	12.7 µM (inactive)	4.63 µM (inactive)	12.4 µM (inactive)	5.57 µM (inactive)	7.64 µM (inactive)	3.04 µM (inactive)	11.9 µM (inactive)	4.1 µM (inactive)	7.5 µM (inactive)	11.5 µM (inactive)	9.2 µM (inactive)	12.9 µM (inactive)	3.33 µM (inactive)	10.5 µM (inactive)	12.2 µM (inactive)	5.05 µM (inactive)
CC(=O)OC1OC(C2c3cccc(O)c3C(=O)c3c(O)cc(CO)cc32)C(O)C(O)C1O (centres undefined)	–	3.01 µM (inactive) and 2.92 µM (inactive)	10.5 µM (inactive) and 9.42 µM (inactive)	4.14 µM (inactive) and 2.62 µM (inactive)	4.51 µM (inactive) and 2.91 µM (inactive)	7.11 µM (inactive) and 5.35 µM (inactive)	2.8 µM (inactive) and 5.56 µM (inactive)	2.87 µM (inactive) and 3.03 µM (inactive)	2.32 µM (inactive) and 2 µM (inactive)	4.18 µM (inactive) and 4.13 µM (inactive)	3.04 µM (inactive) and 3.18 µM (inactive)	1.41 µM (inactive) and 1.73 µM (inactive)	3.08 µM (inactive) and 3.33 µM (inactive)	4.97 µM (inactive) and 5.77 µM (inactive)	3.1 µM (inactive)	–	–	4.39 µM (inactive) and 3.45 µM (inactive)	6.34 µM (inactive)
CCOC(=O)C(=CNC(=S)c1ccncc1)C(=O)OCC	–	> 100 µM (inactive)	> 100 µM (inactive)	> 100 µM (inactive)	> 100 µM (inactive)	> 100 µM (inactive)	> 100 µM (inactive)	> 100 µM (inactive)	> 100 µM (inactive)	> 100 µM (inactive)	> 100 µM (inactive)	> 100 µM (inactive)	> 100 µM (inactive)	> 100 µM (inactive)	> 100 µM (inactive)	> 100 µM (inactive)	> 100 µM (inactive)	> 100 µM (inactive)	> 100 µM (inactive)
CCOC(=O)C(Cc1ccc2c(c1)CCC2)(Cc1ccc2c(c1)CCC2)C(=O)OCC	–	31.7 µM (inactive)	96.2 µM (inactive)	> 100 µM (inactive)	29.9 µM (inactive)	–	47.5 µM (inactive)	71.1 µM (inactive)	31.5 µM (inactive)	94.2 µM (inactive)	32.2 µM (inactive)	34.2 µM (inactive)	98.4 µM (inactive)	56.9 µM (inactive)	26.9 µM (inactive)	–	> 100 µM (inactive)	21.1 µM (inactive)	> 100 µM (inactive)
CC(C)OP(=O)(OC(C)C)C(C(F)(F)F)C(F)(F)F	> 100 µM (inactive)	> 100 µM (inactive)	> 100 µM (inactive)	> 100 µM (inactive)	> 100 µM (inactive)	> 100 µM (inactive)	> 100 µM (inactive)	> 100 µM (inactive)	> 100 µM (inactive)	> 100 µM (inactive)	> 100 µM (inactive)	> 100 µM (inactive)	> 100 µM (inactive)	> 100 µM (inactive)	> 100 µM (inactive)	> 100 µM (inactive)	> 100 µM (inactive)	> 100 µM (inactive)	–
Cc1nccn1S(=O)(=O)c1ccc(Br)cc1Br	–	31.6 µM (inactive)	16.9 µM (inactive)	41.8 µM (inactive)	25.7 µM (inactive)	29.7 µM (inactive)	25.9 µM (inactive)	40.9 µM (inactive)	19.1 µM (inactive)	45.7 µM (inactive)	26.5 µM (inactive)	22.6 µM (inactive)	36.1 µM (inactive)	37.2 µM (inactive)	26.7 µM (inactive)	27.7 µM (inactive)	–	50.8 µM (inactive)	35.9 µM (inactive)
Cc1cn2c(/C=C3/C(=O)Nc4ccccc43)c(C)nc2s1	–	0.867 µM (active)	0.991 µM (active)	3.15 µM (inactive)	1.32 µM (inactive)	7.03 µM (inactive)	2.02 µM (inactive)	3.46 µM (inactive)	0.321 µM (active)	3.82 µM (inactive)	1.03 µM (active)	0.665 µM (active)	4.19 µM (inactive)	3.98 µM (inactive)	14.4 µM (inactive)	0.261 µM (active)	3.79 µM (inactive)	2.61 µM (inactive)	1.33 µM (inactive)
CC(=O)NC(C)(C)C1CC=C(C)/C(=N\O)C1 (centres undefined)	–	> 100 µM (inactive)	> 100 µM (inactive)	> 100 µM (inactive)	> 100 µM (inactive)	> 100 µM (inactive)	> 100 µM (inactive)	> 100 µM (inactive)	> 100 µM (inactive)	> 100 µM (inactive)	> 100 µM (inactive)	> 100 µM (inactive)	> 100 µM (inactive)	> 100 µM (inactive)	> 100 µM (inactive)	> 100 µM (inactive)	> 100 µM (inactive)	–	–
